Our source for the IC50 values is US20210380548A1, “Fused [1,2,4]Thiadiazine Derivatives Which Act as KAT Inhibitors of the MYST Family” (CTxT Pty Limited, priority 2017, published 2021).

Each structure is given as a SMILES string.

The target of assay [1] is T1, TIP60-KAT5 (Homo sapiens, UniProt Q92993).
T1 construct: encoding amino acid residues 2 to 461 (Uniprot Q92993-2) of human KAT5 isoform; made in house; host or cells: E. coli BL21 DE3
Briefly: Acetyltransferase biochemical assay (AlphaScreen), KAT5. Conditions: Table 1 (TIP60-KAT5); 0.4 μM Acetyl coenzyme A, histone H4, 10 nM enzyme. For orientation: In Alpha technology, singlet oxygen from a donor bead excites a nearby acceptor bead.

Assay [2] concerns the target T2, MOZ-KAT6A (Homo sapiens, UniProt Q92794, A567V).
T2 construct: encoding amino acid residues 507 to 778 (Uniprot Q92794-1) of human KAT6A; made in house; host or cells: E. coli BL21 DE3
The assay is described as follows: Acetyltransferase biochemical assay (AlphaScreen), KAT6A. The note with it: Table 2 (MOZ-KAT6A); 10 μM Acetyl coenzyme A, histone H3.1, 5 nM enzyme.

In assay [3] the target is T3, HBO-KAT7 (Homo sapiens, UniProt O95251).
T3 construct: encoding amino acid residues 325 to 611 (Uniprot 095251-1) of human KAT7; made in house; host or cells: E. coli BL21 DE3 RIL
The assay is described as follows: Acetyltransferase biochemical assay (AlphaScreen), KAT7. The note with it: Table 3 (HBO-KAT7); 0.4 μM Acetyl coenzyme A, histone H3.1, 40 nM enzyme.

Assay [4] addresses T2, MOZ-KAT6A. The assay is described as follows: Revised Acetyltransferase Biochemical Assay, KAT6A. The note with it: Table 8 (MOZ-KAT6A), 1 μM Acetyl coenzyme A.
For assay [5], the target named is T3, HBO-KAT7. Briefly: Revised Acetyltransferase Biochemical Assay, KAT7. The note with it: Table 9 (HBO-KAT7), 1 μM Acetyl coenzyme A.
The target of assay [6] is T1, TIP60-KAT5. Briefly: Revised Acetyltransferase Biochemical Assay, KAT5. Conditions: 10 nM KAT5, 1 μM AcCoA, 100 nM histone H4, 90 min.
For assay [7], the target named is T4, MOF-KAT8 (Homo sapiens, UniProt Q9H7Z6).
T4 sequence (Q9H7Z6 177-447): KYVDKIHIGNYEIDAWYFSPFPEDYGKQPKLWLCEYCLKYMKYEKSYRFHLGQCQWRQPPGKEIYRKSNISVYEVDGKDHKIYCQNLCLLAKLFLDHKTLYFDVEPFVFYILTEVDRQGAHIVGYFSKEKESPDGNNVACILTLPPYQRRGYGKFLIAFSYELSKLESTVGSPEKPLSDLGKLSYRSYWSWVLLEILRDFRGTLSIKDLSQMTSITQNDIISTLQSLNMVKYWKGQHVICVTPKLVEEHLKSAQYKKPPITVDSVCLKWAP
Briefly: Revised Acetyltransferase Biochemical Assay, KAT8.

As a reminder, the IC50 is the point on the concentration scale where inhibition reaches its midpoint. A higher IC50 goes with a need for much substance.

T3 sequence (O95251 with tags, fused parts or gaps): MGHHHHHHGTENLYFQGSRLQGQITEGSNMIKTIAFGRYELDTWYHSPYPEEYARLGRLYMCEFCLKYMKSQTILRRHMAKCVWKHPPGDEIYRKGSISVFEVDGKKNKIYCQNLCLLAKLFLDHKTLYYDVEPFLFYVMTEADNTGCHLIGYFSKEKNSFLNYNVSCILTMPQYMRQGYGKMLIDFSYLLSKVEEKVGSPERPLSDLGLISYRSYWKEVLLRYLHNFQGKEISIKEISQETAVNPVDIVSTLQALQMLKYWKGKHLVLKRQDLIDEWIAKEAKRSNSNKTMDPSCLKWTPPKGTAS
T1 sequence (Q92993 2-461 isoform Q92993-2): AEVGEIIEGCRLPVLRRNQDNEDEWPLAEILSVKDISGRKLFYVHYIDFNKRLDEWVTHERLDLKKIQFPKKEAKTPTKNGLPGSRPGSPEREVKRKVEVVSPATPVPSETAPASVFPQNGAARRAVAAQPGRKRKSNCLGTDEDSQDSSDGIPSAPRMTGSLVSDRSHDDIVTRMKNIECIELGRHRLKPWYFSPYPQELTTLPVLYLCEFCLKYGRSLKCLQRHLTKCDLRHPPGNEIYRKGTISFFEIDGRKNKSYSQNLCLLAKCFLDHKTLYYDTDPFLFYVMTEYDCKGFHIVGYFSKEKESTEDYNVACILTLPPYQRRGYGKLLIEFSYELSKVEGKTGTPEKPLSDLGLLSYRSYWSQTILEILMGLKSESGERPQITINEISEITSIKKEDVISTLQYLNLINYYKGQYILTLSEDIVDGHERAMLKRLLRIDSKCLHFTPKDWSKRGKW
T2 sequence (Q92794 507-778 A567V limits assumed): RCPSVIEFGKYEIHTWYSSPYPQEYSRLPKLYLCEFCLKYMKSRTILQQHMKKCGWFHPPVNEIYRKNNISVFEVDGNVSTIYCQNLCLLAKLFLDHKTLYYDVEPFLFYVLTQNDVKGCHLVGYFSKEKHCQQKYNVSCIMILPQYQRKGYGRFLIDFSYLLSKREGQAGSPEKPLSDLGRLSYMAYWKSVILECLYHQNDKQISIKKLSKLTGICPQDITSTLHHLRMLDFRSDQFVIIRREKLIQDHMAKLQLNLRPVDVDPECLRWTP

In the case of `O=C(NCC(c1ccccc1)n1cccc1)C1=Nc2ccccc2S(=O)(=O)N1` (centres unmarked) [Example 54, N-(2-phenyl-2-(1H-pyrrol-1-yl)ethyl)-2H-benzo[e][1,2,4]thiadiazine-3-carboxamide 1,1-dioxide], the values for the IC50 in assay [1], in assay [2] and in assay [3] were 57.9 µM, 8.87 µM and 4.01 µM, respectively.
As for `O=C(NCC(c1ccccc1)c1ccccc1)C1=Nc2ccc(Br)cc2S(=O)(=O)N1` [Example 15, 7-Bromo-N-(2,2-diphenylethyl)-2H-benzo[e][1,2,4]thiadiazine-3-carboxamide 1,1-dioxide], the IC50 in assay [1] was 1.4 µM; in assay [2], 0.211 µM; in assay [4], 682 nM; in assay [5], 874 nM; in assay [6], 5.55 µM.
For the molecule `CNC(=O)Cn1cc(-c2ccc3c(c2)S(=O)(=O)NC(C(=O)NCC(c2ccccc2)c2ncco2)=N3)cn1` (centres unmarked) [Example 9, 7-(1-(2-(Methylamino)-2-oxoethyl)-1H-pyrazol-4-yl)-N-(2-(oxazol-2-yl)-2-phenylethyl)-2H-benzo[e][1,2,4]thiadiazine-3-carboxamide 1,1-dioxide], the IC50 in assay [1] was found to be 12.4 µM; in assay [2] it was 0.0421 µM; in assay [3] it was 20.1 µM.
On the same counts, the results for `O=C(NCCc1cccnc1)C1=Nc2ccc(Br)cc2S(=O)(=O)N1` [Example 80] are over 125 µM, 58.8 µM and 104 µM.
For `COC(=O)c1ccc2c(c1)S(=O)(=O)NC(C(=O)NCC(c1ccccc1)c1ncco1)=N2` (centres unmarked) [Example 23, Methyl 3-((2-(oxazol-2-yl)-2-phenylethyl)carbamoyl)-2H-benzo[e][1,2,4]thiadiazine-7-carboxylate 1,1-dioxide], the IC50 in assay [1] stood at 3.73 µM; in assay [2], 0.056 µM; in assay [4], 120 nM; in assay [5], 2880 nM; in assay [6], 1.73 µM.
Regarding `O=C(NCC(c1cccc(I)c1)c1ncco1)C1=Nc2ccccc2S(=O)(=O)N1` (centres unmarked) [Example 160, N-(2-(3-iodophenyl)-2-(oxazol-2-yl)ethyl)-2H-benzo[e][1,2,4]thiadiazine-3-carboxamide 1,1-dioxide], the concentration for half-maximal inhibition (IC50) in assay [4] was 471 nM; in assay [5] it was 1660 nM; in assay [6], 13.2 µM; in assay [7], 4.89 µM.
For `O=C(NCC(c1ncco1)c1ccccc1-c1ccccc1)C1=Nc2ccccc2S(=O)(=O)N1` (centres unmarked) [Example 161], in that order: 269 nM, 4390 nM, 9.16 µM and 23 µM.
As to `O=C(NCCc1ccccc1-c1cccnc1)C1=Nc2ccccc2S(=O)(=O)N1` [Example 34, N-(2-(Pyridin-3-yl)phenethyl)-2H-benzo[e][1,2,4]thiadiazine-3-carboxamide 1,1-dioxide], the IC50 in assay [1] is over 125 µM; in assay [2], 51.6 µM; in assay [3], 60.3 µM; in assay [4] it was 5780 nM; in assay [5] it was 11500 nM; in assay [6], 70.3 µM.
On to `O=C(NCC(F)(F)c1ccccc1OC(F)F)C1=Nc2ccc(Cl)cc2S(=O)(=O)N1` [Example 232, 7-chloro-N-(2-(2-(difluoromethoxy)phenyl)-2,2-difluoroethyl)-2H-benzo[e][1,2,4]thiadiazine-3-carboxamide 1,1-dioxide], for which the IC50 in assay [4] was 252 nM; in assay [5], 393 nM; in assay [6], 2.74 µM; in assay [7], 35 µM.
On to `O=C(NCCc1ccccc1Br)C1=Nc2ccccc2S(=O)(=O)N1` [Example 28, N-(2-Bromophenethyl)-2H-benzo[e][1,2,4]thiadiazine-3-carboxamide 1,1-dioxide], for which the concentration for half-maximal inhibition (IC50) in assay [1] amounted to 63.5 µM; in assay [2] it was 4.42 µM; in assay [3] it was 15.7 µM.
For `O=C(NCCc1ccccn1)C1=Nc2ccc(Br)cc2S(=O)(=O)N1` [Example 79], in that order: 87.8 µM, 35.4 µM and 29.5 µM.
For the molecule `Nc1ccc2c(c1)S(=O)(=O)NC(C(=O)NCC(c1ccccc1)c1ncco1)=N2` (centres unmarked) [Example 11, 7-Amino-N-(2-(oxazol-2-yl)-2-phenylethyl)-2H-benzo[e][1,2,4]thiadiazine-3-carboxamide 1,1-dioxide], the IC50 in assay [1] was determined as 11.8 µM; in assay [2], 1.81 µM; in assay [3], 2.53 µM.
For `O=C(NCC(c1ccccc1F)n1cccc1)C1=Nc2ccccc2S(=O)(=O)N1` (centres unmarked) [Example 55, N-(2-(2-fluorophenyl)-2-(1H-pyrrol-1-yl)ethyl)-2H-benzo[e][1,2,4]thiadiazine-3-carboxamide 1,1-dioxide], in that order: 36.5 µM, 5.66 µM and 4.51 µM.
For the molecule `O=C(NCCc1cccc(O)c1)C1=Nc2ccc(I)cc2S(=O)(=O)N1` [Example 102], the values for the concentration for half-maximal inhibition (IC50) in assay [1], in assay [2] and in assay [3] were 27.1 µM, 10.6 µM and 60.2 µM, respectively.
For `N#Cc1ccccc1CCNC(=O)C1=Nc2ccccc2S(=O)(=O)N1` [Example 35, N-(2-Cyanophenethyl)-2H-benzo[e][1,2,4]thiadiazine-3-carboxamide 1,1-dioxide], in that order: over 125 µM, 59.9 µM and 31.6 µM.
For the molecule `O=C(NCCc1ccccn1)C1=Nc2ccc(I)cc2S(=O)(=O)N1` [Example 107], the IC50 in assay [1] is 20.8 µM; in assay [2], 12 µM; in assay [3], 23.3 µM.
For `O=C(NCC(c1ccccc1)c1ncco1)C1=Nc2ncccc2S(=O)(=O)N1` (centres unmarked) [Example 99], in that order: over 125 µM, 15.8 µM and 9.16 µM.
For `COC(=O)C(CNC(=O)C1=Nc2ccccc2S(=O)(=O)N1)c1ccccc1` (centres unmarked) [Example 112, Methyl 3-(1,1-dioxido-2H-benzo[e][1,2,4]thiadiazine-3-carboxamido)-2-phenylpropanoate], the IC50 in assay [1] is 18.5 µM; in assay [2] it was 4.58 µM; in assay [3], 4.11 µM.
For `Nc1ccc(CCNC(=O)C2=Nc3ccc(I)cc3S(=O)(=O)N2)cc1` [Example 100], in that order: 40.5 µM, 41.7 µM and 112 µM.
With `CC(CNC(=O)C1=Nc2ccccc2S(=O)(=O)N1)(c1ccccc1)c1ccccc1` [Example 206], the IC50 in assay [1] turned out to be 36.8 µM; in assay [2], 9.64 µM; in assay [3], 7.17 µM; in assay [4], 1390 nM; in assay [5] it was 1210 nM; in assay [6], 13.7 µM.
Turning to `O=C(NCCc1ccccc1F)C1=Nc2ccc(Br)cc2S(=O)(=O)N1` [Example 81], the IC50 in assay [1] is 4.9 µM; in assay [2] it was 1.61 µM; in assay [4], 552 nM; in assay [5] it was 4600 nM; in assay [6], 6.65 µM.
For `O=C(NCCc1ccccc1I)C1=Nc2ccccc2S(=O)(=O)N1` [Example 31, N-(2-Iodophenethyl)-2H-benzo[e][1,2,4]thiadiazine-3-carboxamide 1,1-dioxide], the IC50 was found to be 15.1 µM in assay [1], 8.23 µM in assay [2] and 5.84 µM in assay [3].
On to `O=C(NCC(c1ccccc1)c1ncco1)C1=Nc2ccc(-c3cscn3)cc2S(=O)(=O)N1` (centres unmarked) [Example 135], for which the IC50 was determined as 3.13 µM in assay [1]; 0.168 µM in assay [2]; 2.53 µM in assay [3]; 47 nM in assay [4]; 419 nM in assay [5]; 0.646 µM in assay [6].
Regarding `O=C(NCCc1cccnc1)C1=Nc2ccc(I)cc2S(=O)(=O)N1` [Example 108], the IC50 in assay [1] came to 77.7 µM; in assay [2] it was 11.6 µM; in assay [3], 50.1 µM.
For `O=C(NCC(c1ccccc1)c1ncco1)C1=Nc2cnccc2S(=O)(=O)N1` (centres unmarked) [Example 98], in that order: over 125 µM, 36.1 µM and 68.6 µM.
Turning to `O=C(NCCc1ccccc1O)C1=Nc2ccccc2S(=O)(=O)N1` [Example 29, N-(2-Hydroxyphenethyl)-2H-benzo[e][1,2,4]thiadiazine-3-carboxamide 1,1-dioxide], the IC50 was over 125 µM in assay [1], 28.6 µM in assay [2] and 84.4 µM in assay [3].
In the case of `CCOC(=O)NC(CNC(=O)C1=Nc2ccccc2S(=O)(=O)N1)c1ccccc1` (centres unmarked) [Example 49, Ethyl (2-(1,1-dioxido-2H-benzo[e][1,2,4]thiadiazine-3-carboxamido)-1-phenylethyl)carbamate], the IC50 in assay [1] was over 125 µM; in assay [2] it was 7.67 µM; in assay [4] it was 1680 nM; in assay [5] it was 3130 nM; in assay [6], over 125 µM.
